Results reported in US7563758B2, “Enzymatic production of peracids using Lactobacilli having perhydrolysis activity” (E. I. du Pont de Nemours and Company, priority 2005, dated 2009).

What was measured:
Test in all cases: Minimum biocidal concentration (MBC) of peracetic acid, XTT microtiter assay
Type in all cases: cell-based
Settings in all cases: 5-log kill; exposure at room temperature (e.g., 10 minutes)
[1] = system: Pseudomonas aeruginosa ATCC 15442
Excerpt: (§1) The method described by J. Gabrielson, et al. (J. Microbiol. Methods 50: 63-73 (2002)) can be employed for determination of the Minimum Biocidal Concentration (MBC) of peracids, or of hydrogen peroxide and enzyme substrates. The assay method is based on XTT reduction inhibition, where XTT ((2,3-bis[2-methoxy-4-nitro-5-sulfophenyl]-5-[(phenylamino)carbonyl]-2H-tetrazolium, inner salt, monosodium salt) is a redox dye that indicates microbial respiratory activity by a change in optical density (OD) measured at 490 nm or 450 nm. However, there are a variety of other methods available for testing the activity of disinfectants and antiseptics including, but not limited to viable plate counts, direct microscopic counts, dry weight, turbidity measurements, absorbance, and bioluminescence (see, for example Brock, Semour S., Disinfection, Sterilization, and Preservation, 5th edition, Lippincott Williams & Wilkins, Philadelphia, Pa., USA; 2001).
(§2) The minimum biocidal concentration (MBC) of peracid required to produce a 5-log kill of Staphylococcus aureus ATCC 6538, Salmonella cholerasuis ATCC 10708 and Pseudomonas aeruginosa ATCC 15442 was determined according to the following procedure. Cultures were grown in 5 mL LB broth (Media Tech, Inc.) for 17-24 hours at 35° C. with shaking and subsequently plated on Trypticase Soy Agar (VWR). At least 3 consecutive daily transfers were made. Plates were incubated for 20-24 hours at 35° C.±2° C. Each culture was removed from the agar surface by flooding with 5-7 mL of phosphate buffer, pH 7.2. (e.g., Butterflies or equivalent) and transferred into a sterile flask. The OD600 of the culture suspension was measured and the cell suspension was diluted in phosphate buffer to a final cell density between 1-2 E+05 and 1-2 E+06 CFU/mL, where the final cell concentration was adjusted to produce the concentration needed for the number of logs kill required. The peracetic acid solution to be tested was diluted by doubling dilutions from 600 ppm to 0.5 ppm in sterile water. Test inoculum (100 μL) was added each well of a 96-well microtiter plate, columns 1-11; column 12 was employed for a blank check using sterile dd water in place of inoculum. Decreasing concentrations of peracid solution (100 μL) was added across columns 1-10, and the plates held at room temperature for the required exposure time (e.g., 10 minutes). A Neutralization/detection plate was prepared with Letheen Broth (Difco #268110) and XTT (4 mM stock in water, 2,3-bis-[2-methoxy-4-nitro-5-sulfophenyl]-2H-tetrazolium-5-carboxanilide inner salt); 190 μL was added to each well of a fresh 96 well microtiter plate. From each well of the exposure plate, a 10 μL aliquot was transferred to the neutralization/detection plate. An OD450 reading was measured, and the plate incubated at 35° C.±2° C. for 24 hours. A second OD450 was measured, where orange color was indicative of cell growth. A suspension to test organism(s) was prepared equal to 1-2 E+04 CFU/mL. Add A 10 μL aliquot of this suspension was added to each negative well except column 12, and the plates incubated at 35° C.±2° C. for 24 hours. […] The MBC of peracetic acid generated enzymatically from triacetin by Lactobacillus plantarum ATCC BAA793 (Table 11) indicated equivalency with commercial peracetic acid.

[2] = system: Staphylococcus aureus ATCC 6538
Excerpt: as §1, §2

[3] = system: Salmonella cholerasuis ATCC 10708
Excerpt: as §1, §2

| Compound | MBC in ppm PAA, Pseudomonas aeruginosa ATCC 15442 [1] | MBC in ppm PAA, Staphylococcus aureus ATCC 6538 [2] | MBC in ppm PAA, Salmonella cholerasuis ATCC 10708 [3] [ppm PAA] |
| --- | --- | --- | --- |
| CC(=O)OO [Sigma Lot # 07726EC, peracetic acid, reference compound] | 2.4-14 ppm PAA | 1.8-2.4 ppm PAA | – |
| CC(=O)OO [L. plantarum ATCC BAA793, peracetic acid] | 1.4 ppm PAA | 1.4 ppm PAA | 1.4 |
